From patent US20260115250A1, “METHODS OF TREATING AGE-RELATED MACULAR DEGENERATION” (Character Biosciences, Inc., priority 2022, published 2026) come the findings set out here.

In assay [1] the test system is ARPE-19 cells. Briefly: ARPE-19 GAG-dependent cholesterol import (with or without heparin). Type of assay: cell-based, human. As to conditions: ARPE-19, 10 μM peptide. As for the experimental part:
ARPE-19 cells were seeded on 96-well plates at 25,000 cells per well and grown to confluence. A 2× solution of 500 μM DMPC and 50 μM BODIPY-Cholesterol with or without 100 µg/mL heparin was prepared in serum free DMEM: F12. Peptides were diluted to 20 μM in serum free DMEM: F12 (a 2× solution). Peptides were added to lipid solution in equal parts (60 μL each) and incubated for 1 hour at 37° C. ARPE-19 cells were serum starved in serum free DMEM: F12 for 1 hour at 37° C. Peptide: Lipid complexes (100 μL total volume per well) were transferred to ARPE-19 cells for 2 hours at 37° C. Cells were washed, fixed, and intracellular fluorescence was read on Promega GloMax at 475 nm excitation, 500-550 emission. Fluorescence values were background corrected from no treatment conditions. Data are presented ±SD for 2 runs.

Assay [2] has as its system HepG2 cells. Briefly: HepG2 GAG dependent cholesterol import (with or without heparin). Type of assay: cell-based. The conditions noted are these: HepG2, 10 μM peptide, with or without 100 μg/mL heparin. On the procedure: HepG2 cells were seeded on 96-well plates at 10,000 cells per well and grown to confluence. A 2× solution of 500 μM DMPC and 50 μM BODIPY-Cholesterol with or without 100 μg/mL heparin was prepared in serum free EMEM. Peptides were diluted to 20 μM in serum-free EMEM (a 2× solution). Peptides were added to lipid solution in equal parts (60 μL each) and incubated for 1 hour at 37° C. HepG2 cells were serum starved in serum-free EMEM for 1 hour at 37° C. Peptide: Lipid complexes (100 μL total volume per well) were transferred to HepG2 cells for 2 hours at 37° C. Cells were washed, fixed, and intracellular fluorescence was read on Promega GloMax at 475 nm excitation, 500-550 emission. Fluorescence values were background corrected from no treatment conditions. Data are presented ±SD for 2 runs.

A short description of assay [3]: DMPC solubility assay, 0.5 mM DMPC (turbidity reduction). Type of assay: biochemical. In outline: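 Peptides (100 μM final, or 3.16-100 μM for titrations) incubated with 0.5 mM DMPC in water for 15 minutes at room temperature. Turbidity read as absorbance at 405 nm; EC50 from non-linear regression, mean+SD over two runs.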
Assay [4] concerns HepG2 cells. Briefly: HepG2 cholesterol import (BODIPY-Cholesterol). Type of assay: cell-based. As to conditions: HepG2, peptide:lipid complexes from 30 μM diluted 1:3.
Description: HepG2 cells were seeded on a 96-well plate at 10,000 cells per well and grown to confluence. A solution of 500 μM DMPC and 50 μM BODIPY-Cholesterol was prepared in serum free EMEM. Peptides were diluted to 20 μM in serum free EMEM (a 2× solution). Peptides were added to lipid solution in equal parts (60 μL each) to create final 1× concentration and incubated for 1 hour at 37° C. HepG2 cells were serum starved in serum-free EMEM for 1 hour at 37° C. Peptide: Lipid complexes (100 μL total volume per well) were transferred to HepG2 cells for 2 hours at 37° C. Cells were washed, fixed, and intracellular fluorescence was read on Promega GloMax at 475 nm excitation, 500-550 emission. Fluorescence values were background corrected from no treatment conditions. Data are presented as mean+SD for two runs.
HepG2 cells were seeded on 96-well plates at 10,000 cells per well and grown to confluence. Peptide: Lipid complexes were created by preparing a solution of serum-free EMEM containing 30 μM peptide, 750 μM DMPC, and 75 μM BODIPY-Cholesterol. Peptide: Lipid complexes were serially diluted 1:3 for 5 concentrations, and incubated for 1 hour at 37° C. […] Cells were washed, fixed, and intracellular fluorescence was read on Promega GloMax at 475 nm excitation, 500-550 emission. Fluorescence values were background corrected from no treatment conditions. […]
Assay [5] deals with ARPE-19 cells. The assay can be described thus: ARPE-19 cell lysis (Sytox Green). As to conditions: 3.16-100 μM peptide, 2 h. Type of assay: cell-based, human. On the procedure:
These figures illustrate ARPE-19 cell lysis. ARPE-19 cells were grown in 96-well plates to 75-85% confluence. Peptides at 10 mM were diluted in serum-free DMEM:F12 media into a 20 μM working solution (a 2× solution). Sytox Green was prepared in serum-free DMEM:F12 at a 1 μM working solution (a 2× solution). Equivalent volumes of the peptide and Sytox Green solutions were added to empty 96-well plates and mixed gently. Final peptide concentration was 10 μM. ARPE-19 cells (˜80% confluent in 96-well plates) were washed with DPBS and then incubated in 100 μL of peptide/Sytox Green mixture for 2 h at 37° C. Cells were fixed in 4% paraformaldehyde solution in DPBS and then incubated in 10 μM Hoechst solution for 10 min, washed, and imaged on a Yokogawa CQ1 high-content imager. CellPathfinder software was used to count live/dead cells in 4 fields of view at 20× magnification. Percent (%) lysis was calculated by dividing the number of Sytox Green+ nuclei by the total number of Hoechst+ nuclei.
ARPE-19 cells were grown in 96-well plates to 75-85% confluence. Peptides at 10 mM were diluted in serum-free DMEM: F12 media to solutions between […]. Sytox Green was prepared in serum-free DMEM: F12 media at a 1 μM working solution. Equivalent volumes of the peptide and Sytox Green solutions were added to empty 96-well plates and mixed gently. Final peptide concentration was 3.16-100 μM. ARPE-19 cells (˜80% confluent in 96-well plates) were washed with DPBS and then incubated in 100 μL of peptide/Sytox Green mixture for 2 h at 37° C. Cells were fixed in 4% paraformaldehyde solution in DPBS and then incubated in 10 μM Hoechst solution for 10 min, washed, and imaged on a Yokogawa CQ1 high-content imager. CellPathfinder software was used to count live/dead cells in 4 fields of view at 20× magnification. Percent (%) lysis was calculated by dividing the number of Sytox Green+ nuclei by the total number of Hoechst+ nuclei. Non-linear regression was used to calculate EC50 values.

Molecules are shown by their SMILES. Peptide text beside a SMILES is read from it.

What is called EC50 is the concentration at which the effect is half-maximal. Consider `CC[C@H](C)[C@H](NC(=O)CNC(=O)[C@H](CO)NC(=O)[C@@H](NC(=O)[C@H](Cc1c[nH]c2ccccc12)NC(=O)[C@H](Cc1c[nH]cn1)NC(=O)[C@H](CCC(=O)O)NC(=O)[C@H](Cc1ccccc1)NC(=O)[C@H](CCCNC(=N)N)NC(=O)[C@H](CC(C)C)NC(=O)[C@H](CC(C)C)NC(=O)[C@H](CCCNC(=N)N)NC(=O)[C@H](CCCCN)NC(=O)[C@H](CCCNC(=N)N)NC(=O)[C@H](CC(C)C)NC(=O)[C@H](CCCCN)NC(=O)[C@H](CCCNC(=N)N)NC(=O)[C@H](CC(C)C)NC(=O)[C@@H](N)Cc1c[nH]cn1)[C@@H](C)CC)C(=O)N[C@@H](Cc1ccc(O)cc1)C(=O)N[C@@H](CO)C(=O)N[C@@H](CCC(=O)O)C(=O)N[C@@H](CS)C(=O)N[C@@H](CCCCN)C(=O)N[C@@H](Cc1c[nH]cn1)C(=O)N[C@@H](CC(C)C)C(=O)N[C@H](C(=O)N[C@@H](CCC(N)=O)C(=O)N[C@@H](CCC(=O)O)C(=O)O)[C@@H](C)CC` [T-025] (H-HLRKLRKRLLRFEHWISGIYSECKHLIQE-OH; N-terminus and C-terminus assumed), for which the “GAG dependence of cholesterol import” value in the assay on ARPE-19 cells [1] and in the assay with HepG2 cells [2] was “rely on GAG binding for cholesterol import activity” in each case. Further, the EC50 in assay [3] (3.16-100 μM peptides, 15 minutes) stood at 25.3 µM; with ARPE-19 cells [5] it was 144 µM. The DMPC solubilizing activity result in assay [3] (FIGS. 2A-2D and 3A-3C) was “significant activity”. The cholesterol import titration entry in the assay with HepG2 cells [4] is “concentration-dependent cholesterol import activity”.
